According to patent publication US20100063092A1, “3-CYANO-4-(4-PHENYL-PIPERIDIN-1-YL)-PYRIDIN-2-ONE DERIVATIVES” (Ortho-Mcneil-Janssen Pharmaceuticals, Inc., priority 2007, published 2010):
Where two headings read alike, the source gives them in different places.

What was measured:
human mGluR2 = molecular target: T1, human mGluR2 (Homo sapiens, UniProt Q14416); assay: [35S]GTPγS binding assay (PAM assay); assay type: biochemical
T1 construct: expressed in transfected cells; host or cells: CHO cells (membranes)
T1 sequence (Q14416 19-872): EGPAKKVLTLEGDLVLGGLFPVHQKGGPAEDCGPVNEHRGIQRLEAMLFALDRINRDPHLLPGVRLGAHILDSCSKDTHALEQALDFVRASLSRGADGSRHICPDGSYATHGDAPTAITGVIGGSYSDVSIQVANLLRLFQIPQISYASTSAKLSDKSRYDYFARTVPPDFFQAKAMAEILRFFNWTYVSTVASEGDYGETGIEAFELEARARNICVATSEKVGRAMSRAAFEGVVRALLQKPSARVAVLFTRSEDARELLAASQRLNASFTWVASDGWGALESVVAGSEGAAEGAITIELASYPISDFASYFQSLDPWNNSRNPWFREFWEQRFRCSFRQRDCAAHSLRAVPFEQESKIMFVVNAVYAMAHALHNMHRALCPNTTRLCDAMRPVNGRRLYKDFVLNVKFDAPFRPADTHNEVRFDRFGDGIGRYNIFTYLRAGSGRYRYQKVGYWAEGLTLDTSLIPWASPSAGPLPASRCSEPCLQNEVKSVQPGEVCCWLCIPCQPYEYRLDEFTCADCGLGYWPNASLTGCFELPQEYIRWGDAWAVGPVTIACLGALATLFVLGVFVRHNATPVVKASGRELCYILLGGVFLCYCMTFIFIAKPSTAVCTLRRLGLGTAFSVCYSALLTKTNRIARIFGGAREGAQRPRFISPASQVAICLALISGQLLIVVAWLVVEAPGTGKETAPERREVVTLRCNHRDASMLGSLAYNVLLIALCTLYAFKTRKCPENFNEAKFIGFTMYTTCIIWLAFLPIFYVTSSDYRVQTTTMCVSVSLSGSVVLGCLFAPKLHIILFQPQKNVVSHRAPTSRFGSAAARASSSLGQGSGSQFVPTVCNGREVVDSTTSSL
Text: The compounds provided in the present invention are positive allosteric modulators of mGluR2. These compounds appear to potentiate glutamate responses by binding to an allosteric site other than the glutamate binding site. The response of mGluR2 to a concentration of glutamate is increased when compounds of formula (I) are present. Compounds of formula (I) are expected to have their effect substantially at mGluR2 by virtue of their ability to enhance the function of the receptor. The behaviour of positive allosteric modulators tested at mGluR2 using the [^35S]GTPγS binding assay method described below and which is suitable for the identification of such compounds, and more particularly the compounds according to formula (I), are shown in Table 3.
The [^35S]GTPγS binding assay is a functional membrane-based assay used to study G-protein coupled receptor (GPCR) function whereby incorporation of a non-hydrolysable form of GTP, [^35S]GTPγS (guanosine 5′-triphosphate, labelled with […] ^35S), is measured. The G-protein […] catalyzes the exchange of guanosine 5′-diphosphate (GDP) by guanosine triphosphate (GTP) and on activation of the GPCR by an agonist, [^35S]GTPγS, becomes incorporated and cannot be cleaved to continue the exchange cycle (Harper (1998) Current Protocols in Pharmacology 2.6.1-10, John Wiley & Sons, Inc.). […] Here we describe the use of the [^35S]GTPγS binding assay using membranes from cells transfected with the human mGluR2 receptor and adapted from Schaffhauser et al ((2003) Molecular Pharmacology 4:798-810) for the detection of the positive allosteric modulation (PAM) properties of the compounds of this invention.
CHO-cells were cultured to pre-confluence and stimulated with 5 mM butyrate for 24 hours, prior to washing in PBS, and then collection by scraping in homogenisation buffer (50 mM Tris-HCl buffer, pH 7.4, 4° C.). Cell lysates were homogenized briefly (15s) using an ultra-turrax homogenizer. The homogenate was centrifuged at 23 500×g for 10 minutes and the supernatant discarded. The pellet was resuspended in 5 mM Tris-HCl, pH 7.4 and centrifuged again (30 000×g, 20 min, 4° C.). The final pellet was resuspended in 50 mM HEPES, pH 7.4 and stored at −80° C. in appropriate aliquots before use. Protein concentration was determined by the Bradford method (Bio-Rad, USA) with bovine serum albumin as standard.
Measurement of mGluR2 positive allosteric modulatory activity of test compounds in membranes containing human mGluR2 was performed using frozen membranes that were thawed and briefly homogenised prior to pre-incubation in 96-well microplates (15 μg/assay well, 30 minutes, 30° C.) in assay buffer (50 mM HEPES pH 7.4, 100 mM NaCl, 3 mM MgCl2, 50 μM GDP, 10 μg/ml saponin,) with increasing concentrations of positive allosteric modulator (from 0.3 nM to 50 μM) and either a minimal pre-determined concentration of glutamate (PAM assay), or no added glutamate. For the PAM assay, membranes were pre-incubated with glutamate at EC25 concentration, i.e. a concentration that gives 25% of the maximal response glutamate, and is in accordance to published data (Pin et al. (1999) Eur. J. Pharmacol. 375:277-294). After addition of [^35S]GTPγS (0.1 nM, f.c.) to achieve a total reaction volume of 200 μl, microplates were shaken briefly and further incubated to allow [^35S]GTPγS incorporation on activation (30 minutes, 30° C.). The reaction was stopped by rapid vacuum filtration over glass-fibre filter plates (Unifilter 96-well GF/B filter plates, Perkin-Elmer, Downers Grove, USA) microplate using a 96-well plate cell harvester (Filtermate, Perkin-Elmer, USA), and then by washing three times with 300 μl of ice-cold wash buffer (Na2PO4.2H20 10 mM, NaH2PO4.H20 10 mM, pH=7.4). Filters were then air-dried, and 40 μl of liquid scintillation cocktail (Microscint-O) was added to each well, and membrane-bound [^35S]GTPγS was measured in a 96-well scintillation plate reader (Top-Count, Perkin-Elmer, USA). […]

[1] = compounds of formula (I'), protocol of section D ([35S]GTPγS, human mGluR2, glutamate EC25), read-out: pEC50 (see section D for protocol) (converted)
[2] = membranes from CHO cells transfected with human mGluR2, in presence of glutamate at predetermined EC25 concentration, averages of duplicate values of 11-concentration response curves, read-out: GTPgS - hR2 PAM pEC50 (converted)

Row | EC50 (human mGluR2; [1]) [nM] | EC50 (human mGluR2; [2]) [nM] | melting point [°C] | SMILES
1 | 200 |  |  | CCCCn1ccc(N2CCC(O)(c3cccc(Cl)c3)CC2)c(C#N)c1=O
2 | 100 |  |  | CCCCn1ccc(N2CCC(O)(c3ccc(Cl)cc3)CC2)c(C#N)c1=O
3 | 398 |  |  | CCCCn1ccc(N2CCC(O)(c3ccc(F)cc3)CC2)c(C#N)c1=O
4 | 501 |  |  | N#Cc1c(N2CCC(O)(c3ccc(F)cc3)CC2)ccn(CC2CC2)c1=O
5 | 1000 |  |  | N#Cc1c(N2CCC(O)(c3ccccc3)CC2)ccn(CC2CC2)c1=O
6 |  | 263 | 189.2 | N#Cc1c(N2CCC(F)(c3ccccc3)CC2)ccn(CC2CC2)c1=O [Compound 1, 1′-Cyclopropylmethyl-4-fluoro-2′-oxo-4-phenyl-3,4,5,6,1′,2′-hexahydro-2H-[1,4′]bipyridinyl-3′-carbonitrile]
7 |  | 174 |  | CCCCn1ccc(N2CCC(F)(c3ccccc3)CC2)c(C#N)c1=O [Compound 2, 1′-Butyl-4-fluoro-2′-oxo-4-phenyl-3,4,5,6,1′,2′-hexahydro-2H-[1,4′]bipyridinyl-3′-carbonitrile]
8 |  | 2040 | 103.2 | CCCCn1ccc(N2CCC(CO)(c3ccccc3)CC2)c(C#N)c1=O [Compound 4, 1′-Butyl-4-hydroxymethyl-2′-oxo-4-phenyl-3,4,5,6,1′,2′-hexahydro-2H-[1,4′]bipyridinyl-3′-carbonitrile]
9 |  | 1200 |  | N#Cc1c(N2CCC(CF)(c3ccccc3)CC2)ccn(CC2CC2)c1=O [Compound 5, 1′-Cyclopropylmethyl-4-fluoromethyl-2′-oxo-4-phenyl-3,4,5,6,1′,2′-hexahydro-2H-[1,4′]bipyridinyl-3′-carbonitrile]
10 |  | 447 |  | CCCCn1ccc(N2CCC(CF)(c3ccccc3)CC2)c(C#N)c1=O [Compound 6, 1′-Butyl-4-fluoromethyl-2′-oxo-4-phenyl-3,4,5,6,1′,2′-hexahydro-2H-[1,4′]bipyridinyl-3′-carbonitrile]
11 |  | 186 |  | CCCCn1ccc(N2CCC(OCCF)(c3ccccc3)CC2)c(C#N)c1=O [Compound 7, 1′-Butyl-4-fluoroethyloxy-2′-oxo-4-phenyl-3,4,5,6,1′,2′-hexahydro-2H-[1,4′]bipyridinyl-3′-carbonitrile]
12 |  | 316 | 128 | N#Cc1c(N2CCC(c3ccccc3)CC2)ccn(CC2CC2)c1=O [Compound 8, 3-cyano-1-cyclopropylmethyl-4-(4-phenyl-piperidin-1-yl)-pyridine-2(1H)-one]
